According to patent publication US10017507B2, “Diaza-benzofluoranthrene compounds” (HARBIN PHARMACEUTICAL GROUP CO., LTD. GENERAL …, priority 2015, dated 2018):
pIC50: −log10 of the molar value.

Biological target: T1, PDE1A (Homo sapiens, UniProt P54750)
T1 construct: purchased SignalChem
Test: In vitro detection of phosphodiesterase (PDE): PDE1A enzyme activity by fluorescence polarization immunoassay
Assay type: biochemical
Details: human-derived enzyme, cAMP or cGMP substrate; read-out: IC50s for PDE1
Description: Test 1: In Vitro Detection of Phosphodiesterase (PDE)
the enzyme activity of PDE1A was determined by detecting the production of AMP/GMP by fluorescence polarization immunoassay, wherein AlexaFluor 633 labeled AMP/GMP was used to replace AMP/GMP to bind with the antibody.
Reaction buffer: 10 mM Tris-HCl, pH 7.5, 5 mM magnesium chloride, 0.01% Brij 35, 1 mM DTT and 1% DMSO;
Enzyme substrate: […] cAMP or cGMP (Ca^2+-calmodulin acts as a cofactor of PDE1A)
Detection reagent: Transcreener® AMP2/GMP2 antibody; AMP2/GMP2 AlexaFluor 633 tracer.
Experimental Procedure and Method:
1. Human-derived enzyme (commercially available from SignalChem) to be tested and substrate were diluted with freshly prepared reaction buffer;
2. The enzyme solution (with a concentration of 3 pM) was added to the holes of the microplates;
3. A series of solutions of the compounds in 100% DMSO (with the desired concentrations) were added to the holes containing the enzyme solution by Echo550, and then the microplates were incubated for 10 minutes at room temperature;
4. The substrate solution was added to the holes containing the enzyme and compounds to start the reaction;
5. The microplates were incubated for 1 hour under room temperature and vibration;
6. The detection mixture (tracer and antibody in stop buffer) was added to stop the enzyme reaction, and the microplates were incubated for 90 minutes under vibration;
7. The equipment EnVision (PerkinElmer), Cy5 FP Ex FP 620, Em S-pol 688/P-pol 688, FP mirror D658fp/D688 was used to detect the reaction mixture, and Ex/Em 620/688 was used to detect the fluorescence polarization.
In the Excel table, the enzyme activity corresponding to the FP signal was found on the AMP/GMP standard curve by reference to the DMSO negative control, and then was converted to product concentration (nM). GraphPad Prism was used to analyze and calculate the IC50 values.

Row | SMILES | pIC50
1 | CC[C@@]12C=C(c3noc(-c4ccncc4)n3)n3c4c(c5ccccc53)CCN(CCC1)[C@H]42 [Example 24, 3-((4^1S,13aS)-13a-ethyl-2,3,4^1,5,6,13a-hexahydro-1H-indolo[3,2,1-de]pyrido[3,2,1-ij][1,5]naphthyridin-12-yl)-5-(pyridin-4-yl)-1,2,4-oxadiazole] | 4.00 to 4.70
2 | CC[C@@]12C=C(c3noc(C4CCN(C(=O)OC(C)(C)C)CC4)n3)n3c4c(c5ccccc53)CCN(CCC1)[C@H]42 [Example 26, Tert-butyl-4-(3-((4^1S,13aS)-13a-ethyl-2,3,4^1,5,6,13a-hexahydro-1H-indolo[3,2,1-de]pyrido[3,2,1-ij][1,5]naphthyridin-12-yl)-1,2,4-oxadiazol-5-yl)piperidine-1-carboxylate] | < 4.00
3 | CC[C@@]12C=C(c3noc(-c4ccc(F)cc4)n3)n3c4c(c5ccccc53)CCN(CCC1)[C@H]42 [Example 27, 3-((4^1S,13aS)-13a-ethyl-2,3,4^1,5,6,13a-hexahydro-1H-indolo[3,2,1-de]pyrido[3,2,1-ij][1,5]naphthyridin-12-yl)-5-(4-fluorophenyl)-1,2,4-oxadiazole] | < 4.00
4 | CC[C@@]12C=C(c3noc(-c4cccs4)n3)n3c4c(c5ccccc53)CCN(CCC1)[C@H]42 [Example 28, 3-((4^1S,13aS)-13a-ethyl-2,3,4^1,5,6,13a-hexahydro-1H-indolo[3,2,1-de]pyrido[3,2,1-ij][1,5]naphthyridin-12-yl)-5-(thiophen-2-yl)-1,2,4-oxadiazole] | < 4.00
5 | CC[C@@]12C=C(c3nc(-c4ccccc4)no3)n3c4c(c5ccccc53)CCN(CCC1)[C@H]42 [Example 30, 5-((4^1S,13aS)-13a-ethyl-2,3,4^1,5,6,13a-hexahydro-1H-indolo[3,2,1-de]pyrido[3,2,1-ij][1,5]naphthyridin-12-yl)-3-phenyl-1,2,4-oxadiazole] | < 4.00
6 | CC[C@@]12C=C(c3nc(-c4ccc(F)cc4)no3)n3c4c(c5ccccc53)CCN(CCC1)[C@H]42 [Example 32, 5-((4S,13aS)-13a-ethyl-2,3,4^1,5,6,13a-hexahydro-1H-indolo[3,2,1-de]pyrido[3,2,1-ij][1,5]naphthyridin-12-yl)-3-(4-fluorophenyl)-1,2,4-oxadiazole] | < 4.00
7 | CC[C@@]12C=C(c3nc(C(F)F)no3)n3c4c(c5ccccc53)CCN(CCC1)[C@H]42 [Example 36, 3-Difluoromethyl-5-((4^1S,13aS)-13a-ethyl-2,3,4^1,5,6,13a-hexahydro-1H-indolo[3,2,1-de]pyrido[3,2,1-ij][1,5]naphthyridin-12-yl)-1,2,4-oxadiazole] | 4.00 to 4.70
8 | CC[C@@]12C=C(C3=N[C@@H](C)CO3)n3c4c(c5ccccc53)CCN(CCC1)[C@H]42 [Example 38, (S)-2-((4^1S,13aS)-13a-ethyl-2,3,4^1,5,6,13a-hexahydro-1H-indolo[3,2,1-de]pyrido[3,2,1-ij][1,5]naphthyridin-12-yl)-4-methyl-4,5-dihydrooxazole] | 4.00 to 4.70
9 | CC[C@@]12C=C(c3csc(N)n3)n3c4c(c5ccccc53)CCN(CCC1)[C@H]42 [Example 43, 4-((4^1S,13aS)-13a-ethyl-2,3,4^1,5,6,13a-hexahydro-1H-indolo[3,2,1-de]pyrido[3,2,1-ij][1,5]naphthyridin-12-yl)-thiazole-2-amine] | 4.00 to 4.70

Other lines, results leading:

Row | pIC50 | SMILES
10 | 4.70 to 6.00 | CC[C@@]12C=C(c3noc(C4CCOCC4)n3)n3c4c(c5ccccc53)CCN(CCC1)[C@H]42 [Example 23, 3-((4^1S,13aS)-13a-ethyl-2,3,4^1,5,6,13a-hexahydro-1H-indolo[3,2,1-de]pyrido[3,2,1-ij][1,5]naphthyridin-12-yl)-5-(tetrahydro-2H-pyran-4-yl)-1,2,4-oxadiazole]
11 | 4.70 to 6.00 | CC[C@@]12C=C(c3noc(C(C)(C)O)n3)n3c4c(c5ccccc53)CCN(CCC1)[C@H]42 [Example 25, 2-(3-((4^1S,13aS)-13a-ethyl-2,3,4^1,5,6,13a-hexahydro-1H-indolo[3,2,1-de]pyrido[3,2,1-ij][1,5]naphthyridin-12-yl)-1,2,4-oxadiazol-5-yl)propan-2-ol]
12 | 4.70 to 6.00 | CC[C@@]12C=C(c3nc(-c4ccncc4)no3)n3c4c(c5ccccc53)CCN(CCC1)[C@H]42 [Example 31, 5-((4^1S,13aS)-13a-ethyl-2,3,4^1,5,6,13a-hexahydro-1H-indolo[3,2,1-de]pyrido[3,2,1-ij][1,5]naphthyridin-12-yl)-3-(pyridin-4-yl)-1,2,4-oxadiazole]
13 | 4.70 to 6.00 | CCc1noc(C2=C[C@]3(CC)CCCN4CCc5c(n2c2ccccc52)[C@@H]43)n1 [Example 33, 3-ethyl-5-((4^1S,13aS)-13a-ethyl-2,3,4^1,5,6,13a-hexahydro-1H-indolo[3,2,1-de]pyrido[3,2,1-ij][1,5]naphthyridin-12-yl)-1,2,4-oxadiazole]
14 | 4.70 to 6.00 | CC[C@@]12C=C(c3nc(C(C)C)no3)n3c4c(c5ccccc53)CCN(CCC1)[C@H]42 [Example 34, 5-((4S,13aS)-13a-ethyl-2,3,4^1,5,6,13a-hexahydro-1H-indolo[3,2,1-de]pyrido[3,2,1-ij][1,5]naphthyridin-12-yl)-3-isopropyl-1,2,4-oxadiazole]
15 | 4.70 to 6.00 | CC[C@@]12C=C(c3nc(C4CC4)no3)n3c4c(c5ccccc53)CCN(CCC1)[C@H]42 [Example 35, 3-Cyclopropyl-5-((4^1S,13aS)-13a-ethyl-2,3,4^1,5,6,13a-hexahydro-1H-indolo[3,2,1-de]pyrido[3,2,1-ij][1,5]naphthyridin-12-yl)-1,2,4-oxadiazole]
16 | 4.70 to 6.00 | CC[C@@]12C=C(c3nc(C(C)(C)O)no3)n3c4c(c5ccccc53)CCN(CCC1)[C@H]42 [Example 37, 2-(5-((4^1S,13aS)-13a-ethyl-2,3,4^1,5,6,13a-hexahydro-1H-indolo[3,2,1-de]pyrido[3,2,1-ij][1,5]naphthyridin-12-yl)-1,2,4-oxadiazol-3-yl)-propan-2-ol]
17 | 4.70 to 6.00 | CC[C@@]12C=C(c3nc(C)ns3)n3c4c(c5ccccc53)CCN(CCC1)[C@H]42 [Example 39, 5-((4^1S,13aS)-13a-ethyl-2,3,4^1,5,6,13a-hexahydro-1H-indolo[3,2,1-de]pyrido[3,2,1-ij][1,5]naphthyridin-12-yl)-3-methyl-1,2,4-thiadiazole]
18 | 4.70 to 6.00 | CC[C@@]12C=C(c3nc(C)c(C)s3)n3c4c(c5ccccc53)CCN(CCC1)[C@H]42 [Example 40, 2-((4^1S,13aS)-13a-ethyl-2,3,4^1,5,6,13a-hexahydro-1H-indolo[3,2,1-de]pyrido[3,2,1-ij][1,5]naphthyridin-12-yl)-4,5-dimethylthiazole]
19 | ≥ 6.00 | CC[C@@]12C=C(c3nc(C)c(OC)o3)n3c4c(c5ccccc53)CCN(CCC1)[C@H]42 [Example 41, 2-((4^1S,13aS)-13a-ethyl-2,3,4^1,5,6,13a-hexahydro-1H-indolo[3,2,1-de]pyrido[3,2,1-ij][1,5]naphthyridin-12-yl)-5-methoxy-4-methyloxazole]
20 | 4.70 to 6.00 | CC[C@@]12C=C(c3cn4ccccc4n3)n3c4c(c5ccccc53)CCN(CCC1)[C@H]42 [Example 42, (4^1S,13aS)-13a-ethyl-12-(imidazo[1,2-a]pyridin-2-yl)-2,3,4^1,5,6,13a-hexahydro-1H-indolo[3,2,1-de]pyrido[3,2,1-ij][1,5]naphthyridine]
